From BindingDB's records for patent US20260028337 (Shenzhen Zhongge Biological Technology, 2026)

Molecular target: T1, Interleukin-1 receptor-associated kinase 4 (Homo sapiens, UniProt Q9NWZ3)
T1 sequence (Q9NWZ3 whole entry): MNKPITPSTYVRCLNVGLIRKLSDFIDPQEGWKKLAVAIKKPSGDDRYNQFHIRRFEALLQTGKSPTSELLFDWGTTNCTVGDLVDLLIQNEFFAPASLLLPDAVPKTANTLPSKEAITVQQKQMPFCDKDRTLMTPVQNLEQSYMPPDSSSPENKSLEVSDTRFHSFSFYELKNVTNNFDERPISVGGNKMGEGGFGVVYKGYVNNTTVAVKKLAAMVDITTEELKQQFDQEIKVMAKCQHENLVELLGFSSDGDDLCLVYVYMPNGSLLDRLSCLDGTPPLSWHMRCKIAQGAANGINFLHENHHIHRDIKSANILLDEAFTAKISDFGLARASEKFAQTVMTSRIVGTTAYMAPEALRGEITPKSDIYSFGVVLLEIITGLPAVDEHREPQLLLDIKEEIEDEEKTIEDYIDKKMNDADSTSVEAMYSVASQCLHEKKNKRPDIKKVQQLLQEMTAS
Assay: IRAK4 Kinase Inhibition Assay
Description: In this assay, Cisbio HTRF KinEASE-STK SI kit (62S 1 PEB) was used, in which assay/detection buffer, STK Substrate 1-biotin, Streptavidin-XL665, STK Antibody-Cryptate were contained. After adding compound/DMSO to a 384-well plate (PerkinElmer 6008280) using Echo 665, 5 μL of 2-fold reaction concentration of IRAK4 kinase protein (final concentration: 10 nM) dissolved with assay buffer [1 volume of 5× kinase buffer+20 mM magnesium chloride (Sigma) solution+1 mM DTT (Alfa Aesar) solution+4 volumes deionized water] was added, followed by sealing the shallow well plate, shaking and then centrifuging at 1000 rpm for 1 min, and incubating at room temperature for 5 min; then 5 μL of 2-fold reaction concentration of a 1:1 mixture of STK Substrate 1-biotin (final concentration: 1 μM) and ATP (Sigma A1852) (final concentration: 200 μM) formulated with assay buffer was added, followed by sealing the shallow well plate, shaking and then centrifuging at 1000 rpm for 1 min, and incubating at 37° C. for 2 h, and then 10 μL of a 1:1 mixture of Streptavidin-XL665 (final concentration: 62.5 nM) and STK-antibody-cryptate dissolved with detection buffer was added, followed by sealing the shallow well plate, shaking and then centrifuging at 1000 rpm for 1 min, and incubating at room temperature for 1 h, and thereafter reading the value at the wavelength of 620 nm/665 nm using a microplate reader.

IC50: < 100 nM
Structure (SMILES): OCC1CCC(n2cc(-n3cc(-c4cnn5ccc(C6CCOC6)nc45)nn3)c(C(F)F)n2)CC1 (stereo unspecified) [US20260028337, Compound 98A]
